From US20100272680A1, “Piperidinyl Cyclic Amido Antiviral Agents” (priority 2009, published 2010)

How the values were obtained:
HCV Genotype 1A Replicon = assay: Replicon assay, genotype 1a subgenomic replicon, luciferase readout; format: cell-based; settings: Hepatitis C virus, 48 h, Table 3; luciferase activity after 48 hours
Procedure, shortened: (§1)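 EC50 values came from four-parameter logistic fits of 10-point dose responses (3–4-fold steps, final 0.03–50 μM, 0.5–1% DMSO), normalized against no-compound and no-cell controls. Firefly luciferase was read 48 h after plating 0.5×10^4 replicon cells/well, 1b ET or 1a Apath-derived line.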

HCV Genotype 1B Replicon = assay: Replicon assay, genotype 1b subgenomic replicon (ET cell line), luciferase readout; format: cell-based; settings: Hepatitis C virus, 48 h, Table 3; luciferase activity after 48 hours
Procedure, shortened: as §1

SMILES | EC50 (HCV Genotype 1A Replicon) | EC50 (HCV Genotype 1B Replicon)
O=C(c1nc2c(C(F)(F)F)cc(-c3ccoc3)cn2c1Cl)N1CCC(N2CCNC2=O)CC1 [Compound 169, 1-(1-{[3-chloro-6-(3-furanyl)-8-(trifluoromethyl)imidazo[1,2-a]pyridin-2-yl]carbonyl}-4-piperidinyl)-2-imidazolidinone] | 1880 nM | 160 nM
O=C(c1nc2c(C(F)(F)F)cc(-c3cn[nH]c3)cn2c1Cl)N1CCC(N2CCNC2=O)CC1 [Compound 170, 1-(1-{[3-chloro-6-(1H-pyrazol-4-yl)-8-(trifluoromethyl)imidazo[1,2-a]pyridin-2-yl]carbonyl}-4-piperidinyl)-2-imidazolidinone] | 8810 nM | 1320 nM
O=C1CN(C2CCN(C(=O)c3nc4c(C(F)(F)F)cc(-c5ccoc5)cn4c3Cl)CC2)C(=O)N1 [Compound 171, 1-(1-{[3-chloro-6-(3-furanyl)-8-(trifluoromethyl)imidazo[1,2-a]pyridin-2-yl]carbonyl}-4-piperidinyl)-2,4-imidazolidinedione] | 810 nM | 580 nM
O=C1CN(C2CCN(C(=O)c3nc4c(C(F)(F)F)cc(-c5cn[nH]c5)cn4c3Cl)CC2)C(=O)N1 [Compound 172, 1-(1-{[3-chloro-6-(1H-pyrazol-4-yl)-8-(trifluoromethyl)imidazo[1,2-a]pyridin-2-yl]carbonyl}-4-piperidinyl)-2,4-imidazolidinedione] | 3210 nM | 3760 nM
CN1CCN(C2CCN(C(=O)c3nc4c(C(F)(F)F)cc(-c5ccoc5)cn4c3Cl)CC2)C1=O [Compound 173, 1-(1-{[3-chloro-6-(3-furanyl)-8-(trifluoromethyl)imidazo[1,2-a]pyridin-2-yl]carbonyl}-4-piperidinyl)-3-methyl-2-imidazolidinone] | 750 nM | 480 nM
O=C(c1nc2c(C(F)(F)F)cc(-c3cn[nH]c3)cn2c1Cl)N1CCC(N2C(=O)CNC2=O)CC1 [Compound 174, 3-(1-{[3-chloro-6-(1H-pyrazol-4-yl)-8-(trifluoromethyl)imidazo[1,2-a]pyridin-2-yl]carbonyl}-4-piperidinyl)-2,4-imidazolidinedione] | 25100 nM | 2290 nM
O=C(c1nc2c(C(F)(F)F)cc(-c3ccoc3)cn2c1Cl)N1CCC(N2C(=O)CNC2=O)CC1 [Compound 175, 3-(1-{[3-chloro-6-(3-furanyl)-8-(trifluoromethyl)imidazo[1,2-a]pyridin-2-yl]carbonyl}-4-piperidinyl)-2,4-imidazolidinedione] | 2570 nM | 140 nM
CC1(C)COC(=O)N1C1CCN(C(=O)c2nc3c(C(F)(F)F)cc(-c4ccoc4)cn3c2Cl)CC1 [Compound 176, 3-(1-{[3-chloro-6-(3-furanyl)-8-(trifluoromethyl)imidazo[1,2-a]pyridin-2-yl]carbonyl}-4-piperidinyl)-4,4-dimethyl-1,3-oxazolidin-2-one] | ≥ 50100 nM | ≥ 50100 nM
CC1(C)COC(=O)N1C1CCN(C(=O)c2nc3c(C(F)(F)F)cc(-c4cn[nH]c4)cn3c2Cl)CC1 [Compound 177, 3-(1-{[3-chloro-6-(1H-pyrazol-4-yl)-8-(trifluoromethyl)imidazo[1,2-a]pyridin-2-yl]carbonyl}-4-piperidinyl)-4,4-dimethyl-1,3-oxazolidin-2-one] | ≥ 50100 nM | ≥ 50100 nM
O=C(c1nc2c(C(F)(F)F)cc(-c3ccoc3)cn2c1Cl)N1CCC(N2C(=O)COC2=O)CC1 [Compound 178, 3-(1-{[3-chloro-6-(3-furanyl)-8-(trifluoromethyl)imidazo[1,2-a]pyridin-2-yl]carbonyl}-4-piperidinyl)-1,3-oxazolidine-2,4-dione] | 20 nM | 30 nM
O=C(c1nc2c(C(F)(F)F)cc(-c3cn[nH]c3)cn2c1Cl)N1CCC(N2C(=O)COC2=O)CC1 [Compound 179, 3-(1-{[3-chloro-6-(1H-pyrazol-4-yl)-8-(trifluoromethyl)imidazo[1,2-a]pyridin-2-yl]carbonyl}-4-piperidinyl)-1,3-oxazolidine-2,4-dione] | 60 nM | 360 nM
C[C@H]1COC(=O)N1C1CCN(C(=O)c2nc3c(C(F)(F)F)cc(-c4ccoc4)cn3c2Cl)CC1 [Compound 180, (4S)-3-(1-{[3-chloro-6-(3-furanyl)-8-(trifluoromethyl)imidazo[1,2-a]pyridin-2-yl]carbonyl}-4-piperidinyl)-4-methyl-1,3-oxazolidin-2-one] | 1620 nM | 2850 nM
CC1(C)CN(C2CCN(C(=O)c3nc4c(C(F)(F)F)cc(-c5ccoc5)cn4c3Cl)CC2)C(=O)O1 [Compound 181, 3-(1-{[3-chloro-6-(3-furanyl)-8-(trifluoromethyl)imidazo[1,2-a]pyridin-2-yl]carbonyl}-4-piperidinyl)-5,5-dimethyl-1,3-oxazolidin-2-one] | 6530 nM | 7080 nM
C[C@@H]1COC(=O)N1C1CCN(C(=O)c2nc3c(C(F)(F)F)cc(-c4ccoc4)cn3c2Cl)CC1 [Compound 182, (4R)-3-(1-{[3-chloro-6-(3-furanyl)-8-(trifluoromethyl)imidazo[1,2-a]pyridin-2-yl]carbonyl}-4-piperidinyl)-4-methyl-1,3-oxazolidin-2-one] | 130 nM | 660 nM
CC1(N2CCOC2=O)CCN(C(=O)c2nc3c(C(F)(F)F)cc(-c4ccoc4)cn3c2Cl)CC1 [Compound 183, 3-(1-{[3-chloro-6-(3-furanyl)-8-(trifluoromethyl)imidazo[1,2-a]pyridin-2-yl]carbonyl}-4-methyl-4-piperidinyl)-1,3-oxazolidin-2-one] | ≥ 5010 nM | 4470 nM
C[C@H]1CN(C2CCN(C(=O)c3nc4c(C(F)(F)F)cc(-c5ccoc5)cn4c3Cl)CC2)C(=O)O1 [Compound 184, (5S)-3-(1-{[3-chloro-6-(3-furanyl)-8-(trifluoromethyl)imidazo[1,2-a]pyridin-2-yl]carbonyl}-4-piperidinyl)-5-methyl-1,3-oxazolidin-2-one] | 220 nM | 80 nM
C[C@@H]1CN(C2CCN(C(=O)c3nc4c(C(F)(F)F)cc(-c5ccoc5)cn4c3Cl)CC2)C(=O)O1 [Compound 185, (5R)-3-(1-{[3-chloro-6-(3-furanyl)-8-(trifluoromethyl)imidazo[1,2-a]pyridin-2-yl]carbonyl}-4-piperidinyl)-5-methyl-1,3-oxazolidin-2-one] | 1480 nM | 1550 nM
O=C(c1nc2c(C(F)(F)F)cc(-c3ccoc3)cn2c1Cl)N1CCC(n2ccoc2=O)CC1 [Compound 186, 3-(1-{[3-chloro-6-(3-furanyl)-8-(trifluoromethyl)imidazo[1,2-a]pyridin-2-yl]carbonyl}-4-piperidinyl)-1,3-oxazol-2(3H)-one] | 10 nM | 20 nM
Nc1cc(C(F)(F)F)c2nc(C(=O)N3CCC(N4CCOC4=O)CC3)c(Cl)n2c1 [Compound 187, 3-(1-{[6-amino-3-chloro-8-(trifluoromethyl)imidazo[1,2-a]pyridin-2-yl]carbonyl}-4-piperidinyl)-1,3-oxazolidin-2-one] | 4680 nM | 1620 nM
C[C@@H]1OC(=O)N(C2CCN(C(=O)c3nc4c(C(F)(F)F)cc(-c5ccoc5)cn4c3Cl)CC2)C1=O [Compound 188, (5S)-3-(1-{[3-chloro-6-(3-furanyl)-8-(trifluoromethyl)imidazo[1,2-a]pyridin-2-yl]carbonyl}-4-piperidinyl)-5-methyl-1,3-oxazolidine-2,4-dione] | 190 nM | 60 nM
C[C@@H]1OC(=O)N(C2CCN(C(=O)c3nc4c(C(F)(F)F)cc(C5CC5)cn4c3Cl)CC2)C1=O [Compound 189, (5S)-3-(1-{[3-chloro-6-cyclopropyl-8-(trifluoromethyl)imidazo[1,2-a]pyridin-2-yl]carbonyl}-4-piperidinyl)-5-methyl-1,3-oxazolidine-2,4-dione] | 220 nM | 30 nM
C[C@@H]1OC(=O)N(C2CCN(C(=O)c3nc4c(C(F)(F)F)cc(Br)cn4c3Cl)CC2)C1=O [Compound 190, (5S)-3-(1-{[6-bromo-3-chloro-8-(trifluoromethyl)imidazo[1,2-a]pyridin-2-yl]carbonyl}-4-piperidinyl)-5-methyl-1,3-oxazolidine-2,4-dione] | 1500 nM | 70 nM
C[C@H]1OC(=O)N(C2CCN(C(=O)c3nc4c(C(F)(F)F)cc(-c5ccoc5)cn4c3Cl)CC2)C1=O [Compound 191, (5R)-3-(1-{[3-chloro-6-(3-furanyl)-8-(trifluoromethyl)imidazo[1,2-a]pyridin-2-yl]carbonyl}-4-piperidinyl)-5-methyl-1,3-oxazolidine-2,4-dione] | 210 nM | 40 nM
C[C@H]1OC(=O)N(C2CCN(C(=O)c3nc4c(C(F)(F)F)cc(C5CC5)cn4c3Cl)CC2)C1=O [Compound 192, (5R)-3-(1-{[3-chloro-6-cyclopropyl-8-(trifluoromethyl)imidazo[1,2-a]pyridin-2-yl]carbonyl}-4-piperidinyl)-5-methyl-1,3-oxazolidine-2,4-dione] | 280 nM | 20 nM
C[C@H]1OC(=O)N(C2CCN(C(=O)c3nc4c(C(F)(F)F)cc(Br)cn4c3Cl)CC2)C1=O [Compound 193, (5R)-3-(1-{[6-bromo-3-chloro-8-(trifluoromethyl)imidazo[1,2-a]pyridin-2-yl]carbonyl}-4-piperidinyl)-5-methyl-1,3-oxazolidine-2,4-dione] | 770 nM | 90 nM
O=C(c1nc2c(C(F)(F)F)cc(I)cn2c1Br)N1CCC(N2CCOC2=O)CC1 [Compound 194, 3-(1-{[3-bromo-6-iodo-8-(trifluoromethyl)imidazo[1,2-a]pyridin-2-yl]carbonyl}-4-piperidinyl)-1,3-oxazolidin-2-one] | 30 nM | 30 nM
O=C(c1nc2c(C(F)(F)F)cc(I)cn2c1Br)N1CCC(N2C(=O)COC2=O)CC1 [Compound 195, 3-(1-{[3-bromo-6-iodo-8-(trifluoromethyl)imidazo[1,2-a]pyridin-2-yl]carbonyl}-4-piperidinyl)-1,3-oxazolidine-2,4-dione] | 50 nM | 30 nM
